Assay results published in patent publication US10912767B2, “Anthracycline prodrugs and methods of making and using the same” (THE REGENTS OF THE UNIVERSITY OF COLORADO, priority 2015, dated 2021).

Tests used:
[1] = system: MDA-MB-231 breast carcinoma cells; assay: Tumor cell uptake by flow cytometry; type: cell-based, human; settings: 500 nM, 30 min to 4 h, compared against doxorubicin
Procedure: Uptake of the drugs by the cells was measured by flow cytometry. The cells were incubated with 500 nM photodoxazolidine R═H, azido-PEG-photodoxazolidine, or doxorubicin dissolved in 1:1 PBS:serum-free media for between 30 min and 4 h, after which the drug was removed and the cells washed with cold PBS. Cells were trypsinized to a single-cell suspension, rinsed again in cold PBS, and stored on ice for analysis by flow cytometry, monitoring the presence of the anthraquinone fluorophore (channel FL2). Cell populations were gated for intact cells in the side-scatter/forward-scatter plot and 10,000 gated events were scored for each timepoint. The mean fluorescence of the population was compared to the mean fluorescence of 10,000 gated events for an untreated population and the fold increase over background was plotted versus time of drug incubation.
Using MDA-MB-231 breast carcinoma cells, the cellular uptake of photodoxazolidine and azido-PEG-photodoxazolidine was analyzed by flow cytometry and compared against the uptake of doxorubicin.

[2] = system: orthotopic MDA-MB-231 human breast tumor xenografts; assay: In vivo mouse efficacy, tumor bioluminescence; parameters: species or system nude mice; settings: 4 mg/kg dox equivalent iv + 18-FDG ip, weekly x6
Procedure: For reconstitution for intravenous injection into mice, dry photodoxazolidine R═H (23 mg) was dissolved in 785 μL of DMSO for a final concentration of 34.5 mM, labeled “Drug Stock,” and stored dark at −20° C. Shortly before injection, the Drug Stock was thawed and 20-50 μL was transferred to a new tube. To this tube, 6 volumes (relative to the Drug Stock volume) of PEG-400 and 4 volumes of propylene glycol (PG) were added and the solution thoroughly mixed by vortexing. Immediately prior to injection, 9 volumes of saline (0.9% NaCl) was added to the DMSO/PEG/PG solution of photodoxazolidine and mixed by vortexing. […] Therefore, this formulation was used as prepared. This protocol produces a final formulation of 5% DMSO, 30% PEG-400, 20% PG, 45% saline. A standard injection of 100 μL of this formulation delivers 4 mg dox equivalent/kg body weight for a mouse weighing 0.025 kg.
Luciferase-positive MDA-MB-231 cells were maintained in MEM culture medium supplemented with 10% heat inactivated fetal bovine serum and 2% penicillin/streptomycin. Prior to injection, typsinized cell populations were counted with a Z1 Coulter Particle counter, centrifuged, and resuspended in Hank's Balanced Salt Solution (HBSS) at a concentration of 4.0×10^7 cells/mL. […] Body weight and tumor growth were measured regularly. Tumor growth was measured optically from the bioluminescence signal from injection of luciferin. […]

## COc1cc(COC(=O)N2COC3C(C)OC(OC4CC(O)(C(=O)CO)Cc5c(O)c6c(c(O)c54)C(=O)c4c(OC)cccc4C6=O)CC32)c([N+](=O)[O-])cc1OC (centres unmarked) [Photodoxazolidine]
[1]
  cellular uptake (cellular fluorescence): rapid increase in cellular fluorescence
[2]
  tumor bioluminescence: significant reductions in tumor bioluminescence
